Measurements from ChEMBL document CHEMBL1157273, “Sphaeric acid, a new succinic acid derivative from a Sphaeropsis sp” (J Nat Prod, 1999).
The source made the active and inactive calls.

Legend:
Artemia salina = experiment: Toxicity in Artemia salina after 24 hrs; type: organism-based; conditions: in vivo
Pseudomonas aeruginosa = experiment: Antimicrobial activity against Pseudomonas aeruginosa by disk diffusion assay; type: functional, organism-based
Escherichia coli = experiment: Antimicrobial activity against Escherichia coli by disk diffusion assay; type: functional, organism-based
Fusarium oxysporum = experiment: Antimicrobial activity against Fusarium oxysporum by disk diffusion assay; type: functional, organism-based
Aspergillus niger = experiment: Antimicrobial activity against Aspergillus niger by disk diffusion assay; type: functional, organism-based
Geotrichum candidum = experiment: Antimicrobial activity against Geotrichum candidum by disk diffusion assay; type: functional, organism-based
Candida albicans = experiment: Antimicrobial activity against Candida albicans by disk diffusion assay; type: functional, organism-based

Measured: Activity

CCCCCCCC[C@H](C(=O)O)[C@H](C)C(=O)O [SPHAERIC ACID]
Non-toxic: Artemia salina
inactive: all other assays above
